Source: paper PMC11721817 (Toxicology Reports, 2024)

Experiments:
[1] = system: HCT-116 (human colorectal cancer cells); experiment: MTT cytotoxicity assay, HCT-116; assay type: cell-based
[2] = system: CT-26 (murine colorectal cancer cells); experiment: MTT cytotoxicity assay, CT-26; assay type: cell-based; conditions: Mus musculus, CT26, 24 h
red blood cells (RBCs) = experiment: Hemolysis assay; assay type: cell-based; conditions: rat blood, 10 μM, 25 μM, 50 μM, and 100 μM, compared to positive control
HCT-116 cells [3] = experiment: DNA fragmentation, Hoechst staining, HCT-116; assay type: cell-based, human; conditions: HCT-116, 50 µM, 24 h
CT-26 cells [4] = experiment: DNA fragmentation, Hoechst staining, CT-26; assay type: cell-based, murine; conditions: CT-26, 50 µM, 24 h
HCT-116 cells [5] = experiment: Cell migration; assay type: cell-based, human; conditions: 24 h, control = 100 %
CT-26 cells [6] = experiment: Cell migration; assay type: cell-based, murine; conditions: 24 h, control = 100 %
Wistar rats [7] = experiment: Lipid peroxidation assay; assay type: in vivo, rat; conditions: 1000 mg/kg, compared to control
Wistar rats [8] = experiment: Superoxide dismutase activity in organ homogenates; assay type: in vivo, rat; conditions: 1000 mg/kg
Wistar rats [9] = experiment: Histopathological examination of liver, kidney and spleen; assay type: in vivo, rat; conditions: H&E
Wistar rats [10] = experiment: Serum biochemistry after acute oral administration; conditions: n = 3; for Globulin: normal range 1.5–2.5, mean ± S.E.M; for A/G ratio: normal range 1.58–2.67, mean ± S.E.M; for Albumin: normal range 3.4–4.8, mean ± S.E.M; for Total protein: normal range 5.2–7.1, mean ± S.E.M; for SGPT (ALT): normal range 18–45, mean ± S.E.M; for ALP: normal range 62–230, mean ± S.E.M; for SGOT (AST): normal range 74–183, mean ± S.E.M
Wistar rats [11] = experiment: Acute oral toxicity study; conditions: for change in body weight / food consumed by animals (weight) / change in organ weight, Kidney / change in organ weight, Liver / change in organ weight, Spleen: mean ± S.E.M, n = 5

With CC(C)(C)Nc1c(-c2ccc(-c3ccccc3)cc2)nc2ccccn12 [IG-01–007, 2-([1,1’-biphenyl]-4-yl)-N-(tert-butyl)imidazo[1,2-a]pyridine-3-amine] the cell viability ([1]; HCT-116, 10 μM and 25 μM) was “no significant reduction in cell viability”, the IC50 ([1]; Homo sapiens, HCT-116, 24 h) was 30.1 ± 1.58 µM and the IC50 [2] was 61.2 ± 21.2 µM. The hemolytic activity (red blood cells (RBCs)) was “did not show any hemolytic activity”, the DNA fragmentation (HCT-116 cells [3]) was “DNA fragmentation” and the DNA fragmentation (CT-26 cells [4]) was “DNA fragmentation”. For the same molecule, the “% migration of cell” value (HCT-116 cells [5]; HCT-116, 25 μM) was 41.75%, the “% migration of cell” value (HCT-116 cells [5]; HCT-116, 50 μM) was 35.07% and the migration percentages (CT-26 cells [6]; CT-26, 25 μM) was 45.61%. The migration percentages (CT-26 cells [6]; CT-26, 50 μM) was 30.62%, the “MDA levels, liver” value (Wistar rats [7]) was “significantly higher” and the “SOD level, spleen” value (Wistar rats [8]; compared with IG-01–007 and IG-01–008 at 300 mg/kg) was “significant reduction of SOD level”. For the same molecule, the “SOD level, spleen” value (Wistar rats [8]; compared with control and 1 % DMSO) was “significant decrease seen in SOD level”, the “Liver sections, histopathology” value (Wistar rats [9]; 300 mg/kg) was “healthy with normal hepatocytes while some sections were found to have non-uniform cell structure” and the “Spleen sections, histopathology” value (Wistar rats [9]; 300 mg/kg) was “diffuse white pulp and distorted lymphoid architecture”. For the same molecule, the “Liver sections, histopathology” value (Wistar rats [9]; 1000 mg/kg) was “healthy with mild activation of kupffer cells indicated by circle and moderate steatosis”, the “Spleen sections, histopathology” value (Wistar rats [9]; 1000 mg/kg) was “diffuse white pulp and distorted lymphoid architecture” and the Globulin (Wistar rats [10]; 300 mg/kg) was 3.80 ± 0.404 g/dL. For the same molecule, the A/G ratio (Wistar rats [10]; 300 mg/kg) was 0.69 ± 0.0608, the Albumin (Wistar rats [10]; 300 mg/kg) was 3.33 ± 0.437 g/dL and the Total protein (Wistar rats [10]; 300 mg/kg) was 7.03 ± 0.491 g/dL. The “SGPT (ALT)” value (Wistar rats [10]; 300 mg/kg) was 47.66 ± 2.728 U/L, the ALP (Wistar rats [10]; 300 mg/kg) was 307.33 ± 7.218 U/L and the “SGOT (AST)” value (Wistar rats [10]; 300 mg/kg) was 193 ± 12.74 U/L. The Globulin (Wistar rats [10]; 1000 mg/kg) was 4.006 ± 0.1034 g/dL, the A/G ratio (Wistar rats [10]; 1000 mg/kg) was 0.6966 ± 0.0317 and the Albumin (Wistar rats [10]; 1000 mg/kg) was 3.683 ± 0.261 g/dL. The Total protein (Wistar rats [10]; 1000 mg/kg) was 7.40 ± 0.324 g/dL, the “SGPT (ALT)” value (Wistar rats [10]; 1000 mg/kg) was 75.33 ± 4.05 U/L and the Triglycerides (Wistar rats [10]; 1000 mg/kg, normal range 20–114, mean ± S.E.M) was 115 ± 4.055 mg%. The ALP (Wistar rats [10]; 1000 mg/kg) was 343.0 ± 10.785 U/L, the “SGOT (AST)” value (Wistar rats [10]; 1000 mg/kg) was 242 ± 3.785 U/L and the “change in body weight” value (Wistar rats [11]; 0 day, 300 mg/kg) was 233 ± 2 gm. For the same molecule, the “food consumed by animals (weight)” value (Wistar rats [11]; 0 day, 300 mg/kg) was 93.8 ± 1.1575 gm, the “change in body weight” value (Wistar rats [11]; 0 day, 1000 mg/kg) was 244 ± 15.6844 gm and the “food consumed by animals (weight)” value (Wistar rats [11]; 0 day, 1000 mg/kg) was 94.8 ± 0.80 gm. The “change in organ weight, Kidney” value (Wistar rats [11]; 300 mg/kg) was 1.6568 ± 0.110 gm, the “change in organ weight, Liver” value (Wistar rats [11]; 300 mg/kg) was 6.58 ± 0.535 gm and the “change in organ weight, Spleen” value (Wistar rats [11]; 300 mg/kg) was 0.654 ± 0.075 gm. For the same molecule, the “change in organ weight, Kidney” value (Wistar rats [11]; 1000 mg/kg) was 1.854 ± 0.1179 gm, the “change in organ weight, Liver” value (Wistar rats [11]; 1000 mg/kg) was 6.204 ± 0.2716 gm and the “change in organ weight, Spleen” value (Wistar rats [11]; 1000 mg/kg) was 0.716 ± 0.0508 gm. The “body weight course” value (Wistar rats [11]; 7th and 14th day, 1000 mg/kg) was “gradual decrease in body weight”, the “change in body weight” value (Wistar rats [11]; 7th day, 300 mg/kg) was 248 ± 3.391 gm and the “food consumed by animals (weight)” value (Wistar rats [11]; 7th day, 300 mg/kg) was 90.4 ± 1.288 gm. For the same molecule, the “change in body weight” value (Wistar rats [11]; 7th day, 1000 mg/kg) was 238 ± 16.17 gm, the “food consumed by animals (weight)” value (Wistar rats [11]; 7th day, 1000 mg/kg) was 88.6 ± 1.363 gm and the “change in body weight” value (Wistar rats [11]; 14th day, 300 mg/kg) was 253 ± 8 gm. The “food consumed by animals (weight)” value (Wistar rats [11]; 14th day, 300 mg/kg) was 89.2 ± 2.009 gm, the “food intake” value (Wistar rats [11]; 14th day, 1000 mg/kg, compared to control) was “significant decrease in food intake” and the “change in body weight” value (Wistar rats [11]; 14th day, 1000 mg/kg) was 231 ± 15.033 gm. For the same molecule, the “food consumed by animals (weight)” value (Wistar rats [11]; 14th day, 1000 mg/kg) was 82.4 ± 1.939 gm, the toxicity signs (Wistar rats [11]; oral, 1000 mg/kg) was “toxicity signs were seen” and the “tremors, change in eye and skin color” value (Wistar rats [11]; oral, 1000 mg/kg) was “tremors, change in eye and skin color was observed”. The Mortality (Wistar rats [11]; oral, 2000 mg/kg) was “Mortality was observed”.
